Results: patent US20200385396A1, “Compond for treatment or prevention of obesity or diseases related to obesity, and application thereof” (SHANGHAI INSTITUTES FOR BIOLOGICAL SCIENCES, CHINESE …, priority 2017, published 2020)

Columns and labels:
[1] = tested on: OB/OB obese model mice; assay: Weight loss in OB/OB obese model mice; format: in vivo, mouse
Description: All animal experiments were approved by the Animal Management Committee of SIBCB. C57BL/6 mice were purchased from Lingchang company (normal mice and high-fat diet-induced obese mice), C57/BLJ6 (NUCB2 gene knockout mice for breeding and background purification) were purchased from Lingchang company, OB/OB mice were purchased from Slack company. A high-fat diet (45% kcal, D12451) for inducing obese mice was purchased from Research Diets. Starting from the sixth week, it was fed with high-fat diet for 14-25 weeks. The rest of the mice used normal diet (13.5% kcal). The mice were housed in the SPF grade animal house of SIBCB. The lights were turned off for 12 hours (19: 00-07: 00), and the lights were turned on for 12 hours (07: 00-19: 00).
Mice were intraperitoneally injected with DMSO or HLY72 (dissolved in DMSO) 25 μL within 2 hours before turning off the lamp. During the intragastric experiment, the high concentration of HLY72 dissolved in DMSO was dissolved in 10% cyclodextrin, and the total volume was 100 μL Volume by gavage, so that the final concentration of DMSO was less than 10%. The diet was weighed at the 3rd hour, the 6th hour, the 12th hour, and the 24th hour respectively after the lights out. The corresponding mouse body weight was also weighed at the same time before the daily administration. The fat content of mice was measured with the magnetic resonance fat content measuring instrument of the animal platform in SIBCB.
After obtaining the above results, we now begin to use the small molecule HLY72 in obese mouse models. We first chose the obese mouse model (OB/OB) caused by Leptin mutation. An important reason for the persistence of obesity is the resistance and tolerance to regulatory factors such as Insulin and Leptin. And we are very pleased with the fact that NUCB2 can reduce the food intake of Leptin receptor mutant Zucker rats. In this regard, we can reasonably speculate that the small molecule HLY72 should also have an effect on OB/OB mice. Sure enough, the injection of HLY72 has a significant weight loss effect on OB/OB mice.

[2] = molecular target: T1, NUCB2 protein (Mus musculus, UniProt P81117); assay: Competitive binding experiment: small molecules compete with Bio78 (HLY179) for NUCB2; details: competitor final concentration 100 μM; HLY179 20 μM
T1 construct: Immediately the mouse full-length NUCB2 protein expressed in E. coli was purified; His tag (inferred from pET-28A vector, Ni-NTA purification and His antibody); made in house; host or cells: E. coli BL21-CodonPlus (DE3)
T1 sequence (P81117 25-420): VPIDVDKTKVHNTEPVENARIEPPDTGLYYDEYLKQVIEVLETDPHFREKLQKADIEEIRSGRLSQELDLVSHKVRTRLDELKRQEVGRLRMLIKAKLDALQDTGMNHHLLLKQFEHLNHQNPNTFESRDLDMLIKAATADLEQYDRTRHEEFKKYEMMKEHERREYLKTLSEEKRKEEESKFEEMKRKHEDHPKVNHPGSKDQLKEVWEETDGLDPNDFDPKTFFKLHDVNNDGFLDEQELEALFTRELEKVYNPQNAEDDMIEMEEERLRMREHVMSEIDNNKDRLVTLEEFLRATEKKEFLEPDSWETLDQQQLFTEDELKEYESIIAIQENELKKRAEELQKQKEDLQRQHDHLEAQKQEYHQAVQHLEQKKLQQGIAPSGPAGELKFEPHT
Method: When doing the combining experiments, (1) pre-treating Streptavidin-Agarose, washing Streptavidin-Agarose Beads with IP buffer, and spinning it on the rotor for 10 minutes. (2) Re-binding small molecules HLY179 (20 μM) and Streptavidin-Agarose Beads, spinning it in a refrigeration house at 4° C. for 1-2 hours. (3) When the previous step was performed for about 1 hour, the protein was pre-cleared at the same time, and the protein and the washed Streptavidin-Agarose were rotated in a refrigeration house at 4° C. for 30 minutes. (4) the Streptavidin-Agarose Beads binded with HLY179 was centrifuged, the supernatant was removed, washed again with 600 μL of IP buffer (rotated at 4° C. for 3 minutes), centrifuged, and the supernatant was removed carefully. (5) the pre-cleard protein was added and rotated in a refrigeration house at 4° C. for 2 hours. Washd twice with IP buffer 800 μL, 2 minutes each time (all rotated in a refrigeration house at 4° C.). After the last wash, the supernatant was removed, 40 μL of 2*loading was added and cooked for 10 minutes, stored at −20° C. When doing competitive binding experiments, in the third step while pre-treating the protein adding different small molecule compounds, the final concentration was 100 μM, and the rest was the same. Western Blot: Preparing the appropriate concentration of SDS-PAGE gel, adding protein sample for electrophoretic separation. […]

[3] = tested on: NUCB2 gene knockout heterozygous mice; assay: Effect on NUCB2 gene knockout heterozygous mice; format: in vivo, mouse
Description: Heterozygous mice prepared by the CRISPR-Cas9 system were purchased from Xiamen University. […] Heterozygous mice deleted 83 bases in E3 and confirmed by sequencing (FIG. 17c). In order to facilitate the experiment, for mice with 83 bases deleted, we designed primers to detect by PCR (FIG. 17b). Because of the failure to obtain NUCB2 knockout homozygous mice for multiple matches, only heterozygous mice can be used for research.

[4] = OB/OB mice, 20 mg/kg injection, 7 consecutive days

In the case of `C=Cc1cccc2c1N(C)Cc1cc3c(cc1-2)OCO3` [HLY72], the urine of mice ([1]; OB/OB mice injected with HLY72) is reported as “significantly reduced”, the “daily food intake compared with the DMSO group” value ([1]; OB/OB mice, 20 mg/kg injection) is reported as “significantly reduced” and the “body weight after treatment” value [1, 4] is reported as 37.73 ± 0.87 g. For the same compound, the “reduction in total body weight” value [1, 4] was 10.15%±0.87%, the “body weight before treatment” value ([1]; OB/OB mice, 20 mg/kg injection, start) was 42.02 ± 1.01 g and the “compete with Bio78 for binding to NUCB2” value [2] was “can also compete”. The “effect on daily food intake in heterozygous mice” value [3] was “reduced” and the “effect on mouse weight in heterozygous mice” value [3] was “reduced”.
